pIC50: −log10 of the molar value.
What was measured:
[1] = Colon and plasma mouse pharmacokinetics; assay type: in vivo
[2] = test system: oxazolone-induced colitis model in mice; experiment: Oxazolone-induced colitis model in mice; assay type: in vivo
Text: Oxazolone-induced colitis is an experimental model that has a histological resemblance to human ulcerative colitis.

[3] = test system: IL-2 induced pSTAT5; experiment: Murine model of IL-2 induced pSTAT5 induction in the thymus; assay type: in vivo
[4] = target: T1, JAK3 (Homo sapiens, UniProt P52333); experiment: Protein-adjusted JAK3 IC50 (reference value, data on file); assay type: cell-based
T1 sequence (P52333 1-1124): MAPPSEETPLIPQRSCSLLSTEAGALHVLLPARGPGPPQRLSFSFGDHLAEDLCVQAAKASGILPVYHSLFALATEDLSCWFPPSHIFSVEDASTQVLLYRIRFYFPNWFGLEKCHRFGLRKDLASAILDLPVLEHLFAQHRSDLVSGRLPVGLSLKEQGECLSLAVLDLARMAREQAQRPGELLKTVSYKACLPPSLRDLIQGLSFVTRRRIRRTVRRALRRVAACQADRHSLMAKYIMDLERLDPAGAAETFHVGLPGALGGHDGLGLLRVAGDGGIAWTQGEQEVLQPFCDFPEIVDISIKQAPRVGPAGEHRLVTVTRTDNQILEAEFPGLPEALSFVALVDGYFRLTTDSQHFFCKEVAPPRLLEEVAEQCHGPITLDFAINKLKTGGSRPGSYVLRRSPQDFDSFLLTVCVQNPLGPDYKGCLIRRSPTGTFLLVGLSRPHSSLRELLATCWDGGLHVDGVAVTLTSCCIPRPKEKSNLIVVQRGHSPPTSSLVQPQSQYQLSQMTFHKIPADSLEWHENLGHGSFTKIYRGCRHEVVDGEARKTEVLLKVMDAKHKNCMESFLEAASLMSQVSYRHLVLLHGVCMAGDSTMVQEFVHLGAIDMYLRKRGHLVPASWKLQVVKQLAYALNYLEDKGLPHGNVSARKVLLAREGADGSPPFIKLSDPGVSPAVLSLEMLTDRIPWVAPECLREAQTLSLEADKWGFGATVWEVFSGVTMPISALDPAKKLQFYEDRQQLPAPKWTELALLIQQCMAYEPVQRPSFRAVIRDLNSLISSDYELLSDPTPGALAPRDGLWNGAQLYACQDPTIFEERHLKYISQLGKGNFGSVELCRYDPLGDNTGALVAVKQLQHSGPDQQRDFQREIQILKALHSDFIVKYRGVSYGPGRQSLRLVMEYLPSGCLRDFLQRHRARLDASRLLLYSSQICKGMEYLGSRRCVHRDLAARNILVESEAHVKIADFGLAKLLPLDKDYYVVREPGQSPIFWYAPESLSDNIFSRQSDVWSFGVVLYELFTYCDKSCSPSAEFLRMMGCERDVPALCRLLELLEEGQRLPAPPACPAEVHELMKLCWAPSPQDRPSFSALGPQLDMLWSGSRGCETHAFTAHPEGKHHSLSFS
Text: In FIG. 11B, gray box indicates day 1 of MAD portion. Symbols and error bars represent the arithmetic mean plus SD, and reference IC50 values shown are from data on file. BID, twice daily; HuPBMC, human peripheral blood mononuclear cell; IC50, concentration producing 50% of maximal inhibition.

[5] = target: T1, JAK3; experiment: Co-crystal structure with human JAK3; assay type: binding
Text: Such covalent binding to JAK3 could be beneficial by providing an extended target engagement which may translate in better efficacy.

CN(C)C/C=C/C(=O)N1CC(COc2cc(-c3ccc(O)cc3)cc3[nH]ncc23)C1 [compound of formula (I)]
Kp ([1]; colon/plasma, mouse, oral administration, read-out: ratio of exposure in the colon to exposure in plasma): > 1250
permeability coefficient (Papp) ([1]; stated in the sentence on the colon and plasma mouse pharmacokinetics study): less than 10×10^−6 cm/sec
activity in the oxazolone-induced colitis model [2]: demonstrated activity
systemic activity (IL-2 induced pSTAT5 induction in the thymus) [3]: lack of systemic activity
pIC50 [4]: 6.43
binding nature to JAK3 (co-crystal structure, covalent bond with Cys909) [5]: irreversible binding
